A word on the Km: it is the substrate concentration at which the rate is half of its maximum.

From publication PMC4493641, “Enhancement of E. coli acyl-CoA synthetase FadD activity on medium chain fatty acids” (PeerJ, 2015) come the findings set out here.

One data set addresses T1, FadD (Escherichia coli, UniProt P69451).
T1 construct: full-length, C-terminal His6 tag kept, pETDuet-1 (TJF032), expressed in E. coli BL21*(DE3) delta-fadD, partially purified by Ni-NTA
T1 sequence (P69451 1-561): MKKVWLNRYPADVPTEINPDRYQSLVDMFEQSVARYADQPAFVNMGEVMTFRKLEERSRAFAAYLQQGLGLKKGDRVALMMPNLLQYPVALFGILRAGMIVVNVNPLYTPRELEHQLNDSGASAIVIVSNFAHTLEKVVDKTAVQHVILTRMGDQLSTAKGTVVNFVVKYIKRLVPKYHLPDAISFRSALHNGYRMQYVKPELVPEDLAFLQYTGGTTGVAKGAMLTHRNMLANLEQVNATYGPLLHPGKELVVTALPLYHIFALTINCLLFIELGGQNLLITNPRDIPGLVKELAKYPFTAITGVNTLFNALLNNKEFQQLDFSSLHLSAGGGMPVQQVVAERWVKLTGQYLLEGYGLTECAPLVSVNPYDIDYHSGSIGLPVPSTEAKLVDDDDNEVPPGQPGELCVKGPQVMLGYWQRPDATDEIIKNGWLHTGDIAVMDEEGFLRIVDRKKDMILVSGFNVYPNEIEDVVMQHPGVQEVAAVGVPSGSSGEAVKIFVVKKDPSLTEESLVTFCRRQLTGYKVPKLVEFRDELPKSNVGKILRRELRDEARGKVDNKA
The data set is described as follows: coupled AMP production assay (myokinase / pyruvate kinase / lactate dehydrogenase, NADH oxidation at […] nm). Format: biochemical. The note with it: 2.5 mM ATP, 0.5 mM CoA, 8 mM MgCl2, 0.1% Triton X-100, pH 7.5, 30 °C; partially purified.

Substrate in the data set “purified protein”: CCCCCCCC(=O)O
The data set is described as follows: purified protein. The note with it: 2.5 mM ATP, 0.5 mM CoA, 8 mM MgCl2, 0.1% Triton X-100, pH 7.5, 30 °C, partially purified.

Turning to `CCCCCCCC/C=C\CCCCCCCC(=O)O` [oleate], on FadD, the Km entry is “Vmax (A) and Km (B) values for the indicated substrates”.

B1: FadD (Escherichia coli K-12) (protein)
chain: T1 sequence (P69451 1-561)
As for B1, in “purified protein”, the Km was 422 µM.
